The subject of test [1] is meal fed obese Zucker rats. Kind of test: Food consumption assay in meal fed obese Zucker rats. The class given is in vivo. Conditions: Rattus norvegicus, sc, 4 h, amount to decrease food consumption 20% during first four hours. An excerpt: The following assay was employed to evaluate the ability of the compounds of the invention to effect food and water consumption of meal fed obese Zucker rats.
According to this procedure, 3-4 month old obese Zucker rats were trained to eat food daily from 8:00 A.M. to 4:00 P.M. only, such that the body weight gain approximates that if the rats were fed ad libitum. These rats were allowed to consume water at all times. Four groups of rats with four rats in each group, two female and two male, were formed. One group served as control for the other three groups each day. Each of the other groups were given a subcutaneous dose of the compound to be evaluated. The test compound was formulated in physiological saline containing 10% dimethylsulfoxide by volume.
Animals remained drug free for 4 days before the next test. Food and water consumption of each rat were measured for the first four hours. A test on one compound was run for three consecutive days. The drug effect was expressed as the percent of the control for that test day.
In the Table, column 1 gives the Example Number of the compound evaluated; and column 2 provides the ED20 in mg/kg, wherein ED20 represents the amount of compound evaluated in mg/kg necessary to decrease food consumption 20% during the first four hours of the experiment.

For test [2], the target named is T1, kappa receptors (Rattus norvegicus, UniProt P34975).
T1 construct: sixty male Long-Evans hooded rats; from tissue; host or cells: whole living male Long-Evans hooded rats (in vivo)
T1 sequence (P34975 whole entry): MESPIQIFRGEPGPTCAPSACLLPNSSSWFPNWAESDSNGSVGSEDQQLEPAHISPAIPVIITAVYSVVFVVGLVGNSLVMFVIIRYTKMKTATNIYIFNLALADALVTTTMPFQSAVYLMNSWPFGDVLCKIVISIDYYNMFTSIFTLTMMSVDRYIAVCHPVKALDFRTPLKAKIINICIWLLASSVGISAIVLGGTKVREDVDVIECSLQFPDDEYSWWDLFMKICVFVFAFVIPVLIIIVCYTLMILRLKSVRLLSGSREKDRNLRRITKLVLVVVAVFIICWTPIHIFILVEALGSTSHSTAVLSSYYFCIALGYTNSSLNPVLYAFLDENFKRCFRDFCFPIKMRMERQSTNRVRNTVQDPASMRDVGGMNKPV
Kind of test: Rat diuresis assay, antagonism of bremazocine-induced urination. The following applies: sc, rats, s.c., urinary output reduced to 50% of effect of 0.08 mg/kg bremazocine alone. The class given is in vivo, male Long-Evans hooded rats. As for the experimental part:
As such, the compounds of the invention were also evaluated in a rat diuresis assay conducted according to the following procedure described by Leander et al. in Drug Development Research 4:421-427 (1984) in an effort to further establish the ability of the present compounds to block kappa receptors.
According to this procedure, sixty male Long-Evans hooded rats (Charles River Breeding Laboratories, Portage, Mich.) weighing between about 300 and 500 grams each were housed either individually or in pairs in a temperature-controlled (23° C.) colony room which was illuminated between 6:00 A.M. and 6:00 P.M. Rodent chow and tap water were continuously available except during the measurement of urine output. The animals were used repeatedly, but no more frequently than twice a week.
The animals were then injected with various doses of the test compounds. To measure urine output, the animals were removed from the home cages, weighed, injected and placed in metabolism cages for 5 hr. Excreted urine was funneled into graduated cylinders. Cumulative urine volumes were determined at designated time intervals, usually at 2 and 5 hr after injection.
The compounds which are salt forms were dissolved in distilled water. If necessary, the compounds were dissolved in distilled water with the aid of either a few drops of lactic acid or hydrochloric acid and gentle warming. All injections were s.c. in a volume of 1 ml/kg of body weight. During tests for antagonism, two injections were given, one on each side of the body.
In the Table, column 1 provides the Example Number of the compound tested; column 2, the amount of compound in mg/kg necessary to reduce the urinary output to 50% of the effect produced by 0.08 mg/kg of bremazocine alone two hours after injection of bremazocine and the test compound; and column 3, the amount of compound in mg/kg necessary to reduce the urinary output to 50% of the effect produced by 0.08 mg/kg of bremazocine alone five hours after injection of bremazocine and the test compound.

Test [3] deals with T2, mu receptor (Mus musculus, UniProt P42866).
T2 construct: Five CF-1 male mice (Charles River, Portage, Mich.); from tissue; host or cells: whole living CF-1 male mice (in vivo)
T2 sequence (P42866 whole entry): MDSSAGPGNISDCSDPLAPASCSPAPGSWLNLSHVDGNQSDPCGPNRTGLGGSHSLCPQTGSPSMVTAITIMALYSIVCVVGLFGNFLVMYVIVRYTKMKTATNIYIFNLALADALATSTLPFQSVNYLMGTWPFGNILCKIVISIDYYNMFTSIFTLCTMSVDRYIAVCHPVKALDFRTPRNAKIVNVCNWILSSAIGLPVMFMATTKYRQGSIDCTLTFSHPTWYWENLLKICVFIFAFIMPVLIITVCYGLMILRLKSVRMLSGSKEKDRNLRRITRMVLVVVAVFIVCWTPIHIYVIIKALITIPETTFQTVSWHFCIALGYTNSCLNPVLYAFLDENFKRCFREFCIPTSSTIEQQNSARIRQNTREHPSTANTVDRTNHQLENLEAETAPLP
The experiment in a line: Mouse writhing assay, antagonism of morphine analgesia (mu). The class given is in vivo, CF-1 male mice. The following applies: sc, read-out: Mu AD50.

Test [4] deals with T3, mu receptor (Rattus norvegicus, UniProt P33535).
T3 construct: rat whole brain minus cerebellum for mu and delta sites; from tissue; host or cells: rat whole brain minus cerebellum, frozen pellet fraction
T3 sequence (P33535 whole entry): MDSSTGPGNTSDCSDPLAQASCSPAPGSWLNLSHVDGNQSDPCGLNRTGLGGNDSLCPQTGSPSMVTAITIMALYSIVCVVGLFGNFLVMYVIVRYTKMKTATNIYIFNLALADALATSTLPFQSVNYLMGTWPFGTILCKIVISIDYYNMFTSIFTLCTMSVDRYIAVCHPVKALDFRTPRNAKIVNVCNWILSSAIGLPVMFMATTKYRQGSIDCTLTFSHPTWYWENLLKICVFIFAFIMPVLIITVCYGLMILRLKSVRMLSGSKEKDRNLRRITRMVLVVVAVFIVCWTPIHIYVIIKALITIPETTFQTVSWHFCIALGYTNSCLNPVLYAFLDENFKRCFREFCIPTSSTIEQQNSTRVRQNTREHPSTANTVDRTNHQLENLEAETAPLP
The experiment in a line: Opioid receptor binding displacement assay, mu site (rat whole brain minus cerebellum, 3H ligand). Set-up: species or system Male Sprague Dawley rats. As for the experimental part:
(§1) This assay was conducted by the following procedure.
(§2) Male Sprague Dawley rats for mu and delta site experiments and male Hartley guinea pigs for kappa site experiments were sacrificed via decapitation and the brains were removed. The brain tissue, rat whole brain minus cerebellum for mu and delta sites and guinea pig cortex for the kappa site, was homogenized in a Teflon and glass tissue homogenizer. A supernatant I, pellet IV, fraction was frozen in a nitrogen freezer at 1.33 g/ml concentration and stored for not longer than five weeks prior to use. Pellets were rehydrated with physiological buffer prior to use.
(§3) The reaction was initiated by the addition of the rehydrated tissue which has been preincubated at 37° C. for 20 minutes. The reaction mixture was incubated in a 37° C. water bath for 20 minutes. The reaction was terminated by rapid filtration, (Amicon vacuum manifolds), through Whatman GF/C glass filters that had been presoaked in Krebs-Hepes buffer pH 7.4. The filters were then washed 2× with 5 ml of ice cold Krebs-Hepes buffer pH 7.4. Washed filters were placed in scintillation vials and 10 ml PCS, (Amersham), was added and samples counted in a Searle D-300 beta counter. Means and standard error statistics were calculated for triplicate experimental determinations in certain cases. The procedure was slightly modified for the kappa site. The tissue was pretreated with 100 nM concentrations of mu and delta receptor site blockers. The incubation time for the reaction mixture was 45 minutes at 37° C.

In test [5] the target is T4, kappa receptor (Mus musculus, UniProt P33534).
T4 construct: Five CF-1 male mice (Charles River, Portage, Mich.); from tissue; host or cells: whole living CF-1 male mice (in vivo)
T4 sequence (P33534 whole entry): as the sequence (P34975 whole entry) above, with E11D, A17S, P51S, V308A counted along it
Kind of test: in vivo. Further details: species or system CF-1 male mice. The following applies: sc, read-out: Kappa AD50.

The target in test [6] is T5, kappa receptor (Cavia porcellus, UniProt P41144).
T5 construct: guinea pig cortex for the kappa site; from tissue; host or cells: guinea pig cortex, frozen pellet fraction
T5 sequence (P41144 whole entry): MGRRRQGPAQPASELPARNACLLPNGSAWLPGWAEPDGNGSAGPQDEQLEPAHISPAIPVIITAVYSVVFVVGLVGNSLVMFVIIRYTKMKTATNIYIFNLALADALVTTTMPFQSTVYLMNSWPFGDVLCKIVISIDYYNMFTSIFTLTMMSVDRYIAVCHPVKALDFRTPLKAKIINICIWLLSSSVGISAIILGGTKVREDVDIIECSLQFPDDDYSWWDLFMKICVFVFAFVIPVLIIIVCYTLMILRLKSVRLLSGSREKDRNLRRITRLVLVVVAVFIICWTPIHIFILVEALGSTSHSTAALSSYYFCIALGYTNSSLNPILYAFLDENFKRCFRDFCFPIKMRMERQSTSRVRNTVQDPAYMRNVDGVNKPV
The experiment in a line: Opioid receptor binding displacement assay, kappa site (guinea pig cortex, 3H ligand). Set-up: species or system male Hartley guinea pigs. As for the experimental part:
as §1, §2, §3

The mark [7] stands for this setting: 2 h, two hours after injection, read-out: AD50 Two Hours.
The mark [8] stands for this setting: 5 h, five hours after injection, read-out: AD50 Five Hours.
Setting [9] is: rat brain minus cerebellum, pH 7.4, 37° C., 20 minutes, read-out: Ki Mu.

Counter-ions that a name gives are not always drawn. Like-named read-outs stand apart in the source and are kept apart here.

Turning to `C[C@H]1CN(CCC(O)c2cccs2)CC[C@@]1(C)c1cccc(O)c1` (relative stereo) [Example 40, trans-(±)-1-[R,S-[3-Hydroxy-3-(2-thienyl)-propyl]-3,4-dimethyl-4-(3-hydroxyphenyl)piperidine hydrochloride], the ED20 in test [1] was 0.11 mg/kg. The ED50 stood at 3.78 mg/kg in test [2] (setting [7]), 1.44 mg/kg in test [2] (setting [8]), 0.065 mg/kg in test [3] and 0.14 mg/kg in test [5]. Besides, the Ki in test [4] (setting [9]) is 0.5 nM.
Consider `CC(C)CCN1CCC(C)(c2cccc(O)c2)C(C)C1` (stereo not drawn) [Example 16, trans-(±)-1-(3-Methylbutyl)-3,4-dimethyl-4-(3-hydroxyphenyl)piperidine hydrochloride], for which affinity in test [6] was put at a Ki of 70.1 nM. The ED20 in test [1] is above 20 mg/kg. In addition, the ED50 was determined as 7.7 mg/kg in test [2] (setting [7]), 4.45 mg/kg in test [2] (setting [8]), 0.87 mg/kg in test [3] and 0.62 mg/kg in test [5].
The compound `CC1CN(CCC2CCCC2)CCC1(C)c1cccc(O)c1` (stereo not drawn) [Example 6, trans-(±)-1-(2-Cyclopentylethyl)-3,4-dimethyl-4-(3-hydroxyphenyl)piperidine hydrochloride] showed an ED20 in test [1] of 0.33 mg/kg. The ED50 in test [2] (setting [8]) came to 0.67 mg/kg; in test [3] it was 0.13 mg/kg; in test [5], 0.22 mg/kg. Further, in test [4], affinity was put at a Ki of 0.94 nM.
For `CC1CN(CCCC2CCCCC2)CCC1(C)c1cccc(O)c1` (stereo not drawn) [Example 11, trans-(±)-1-(3-Cyclohexylpropyl)-3,4-dimethyl-4-(3-hydroxyphenyl)piperidine hydrochloride], in test [6], the Ki was 2.34 nM. Further, the ED20 in test [1] came out at 0.15 mg/kg. The ED50 was determined as 1.9 mg/kg in test [2] (setting [7]), 1.02 mg/kg in test [2] (setting [8]), 0.19 mg/kg in test [3] and 0.35 mg/kg in test [5].
Turning to `C=CCCCCN1CCC(C)(c2cccc(O)c2)C(C)C1` (stereo not drawn) [Example 21, trans-(±)-1-(5-n-Hexenyl)-3,4-dimethyl-4-(3-hydroxyphenyl)piperidine hydrochloride], in test [1], the ED20 turned out to be 9.37 mg/kg. In test [4], this compound registered a Ki of 1.61 nM.
For `CC1CN(CCCc2ccsc2)CCC1(C)c1cccc(O)c1` (stereo not drawn) [Example 41, trans-(±)-1-[3-(3-Thienyl)propyl]-3,4-dimethyl-4-(3-hydroxyphenyl)piperidine hydrochloride], the Ki in test [6] is 10.3 nM. Besides, the ED50 worked out at 2.7 mg/kg in test [2] (setting [7]), 1.9 mg/kg in test [2] (setting [8]), 0.12 mg/kg in test [3] and 0.24 mg/kg in test [5].
In the case of `C[C@@H]1CN(CC[C@@H](O)C2CCCCC2)CC[C@]1(C)c1cccc(O)c1` [Example 26, trans-(-)-1-[R-(3-Hydroxy-3-cyclohexylpropyl)]-3,4-dimethyl-4-(3-hydroxyphenyl)piperidine], the ED20 in test [1] turned out to be 0.35 mg/kg. The ED50 in test [3] was found to be 0.07 mg/kg; in test [5], 0.52 mg/kg. In addition, the Ki in test [4] was 2.24 ± 0.17 nM.
Take `CC1CN(CC2CCCCC2)CCC1(C)c1cccc(O)c1` (stereo not drawn) [Example 10, trans-(±)-1-(Cyclohexylmethyl)-3,4-dimethyl-4-(3-hydroxyphenyl)piperidine hydrochloride]: the Ki in test [6] came out at 28.2 nM. In test [1], this compound registered an ED20 of 1.25 mg/kg. Also, the ED50 in test [2] (setting [7]) was 14.9 mg/kg; in test [2] (setting [8]) it was 3.9 mg/kg; in test [3], 0.46 mg/kg; in test [5] it was 0.34 mg/kg.
Consider `CCCCCCN1CCC(C)(c2cccc(O)c2)C(C)C1` (stereo not drawn) [Example 22, trans-(±)-1-(n-Hexyl)-3,4-dimethyl-4-(3-hydroxyphenyl)piperidine hydrochloride], for which the ED20 in test [1] was 0.78 mg/kg. Besides, the ED50 was found to be 1.31 mg/kg in test [2] (setting [7]), 0.7 mg/kg in test [2] (setting [8]), 0.05 mg/kg in test [3] and 0.11 mg/kg in test [5].
The corresponding values for `CCCCCCCN1CCC(C)(c2cccc(O)c2)C(C)C1` (stereo not drawn) [Example 8, trans-(±)-1-(n-Heptyl)-3,4-dimethyl-4-(3-hydroxyphenyl)piperidine hydrochloride] are 0.44 mg/kg, 3.77 mg/kg, 3.33 mg/kg, 0.21 mg/kg and 0.64 mg/kg.
`C[C@H]1CN(C)CC[C@@]1(C)c1cccc(O)c1` (relative stereo) [Compound B, 3-(1,3α,4β-Trimethyl-4α-piperidyl)phenol hydrochloride, reference compound] displayed an ED20 in test [1] of 3.99 mg/kg. The ED50 came to 0.74 mg/kg in test [3] and 2.5 mg/kg in test [5]. In test [4] (setting [9]), the Ki came out at 80 nM.
Take `COC(CCN1CC[C@@](C)(c2cccc(O)c2)[C@@H](C)C1)C1CCCCC1` (relative stereo) [Example 31, trans-(±)-1-[R,S-(3-Methoxy-3-cyclohexylpropyl)]-3,4-dimethyl-4-(3-hydroxyphenyl)piperidine hydrochloride]: the Ki is 3.82 nM in test [6] (guinea pig cortex, pH 7.4, 37° C., 45 minutes, mu and delta sites blocked (100 nM), read-out: Ki Kappa); 0.77 nM in test [4] (setting [9]). For the same compound, the ED50 in test [3] turned out to be 1.42 mg/kg; in test [5], 0.44 mg/kg.
Regarding `C[C@H]1CN(CCCc2cccs2)CC[C@@]1(C)c1cccc(O)c1` (stereo in doubt) [Example 36, trans-(+)-1-[3-(2-Thienyl)propyl]-3,4-dimethyl-4-(3-hydroxyphenyl)piperidine], the ED20 in test [1] turned out to be 0.05 mg/kg. The ED50 in test [2] (setting [7]) amounted to 4.65 mg/kg; in test [2] (setting [8]) it was 1.65 mg/kg; in test [3], 0.05 mg/kg; in test [5], 0.11 mg/kg.
With `CC(C)CCCCN1CCC(C)(c2cccc(O)c2)C(C)C1` (stereo not drawn) [Example 4, trans-(±)-1-(5-Methylhexyl)-3,4-dimethyl-4-(3-hydroxyphenyl)piperidine hydrochloride], the Ki in test [6] (read-out: Ki Kappa, guinea pig cortex, pH 7.4, 37° C., 45 minutes, mu and delta sites blocked (100 nM)) was determined as 6.04 ± 0.44 nM. The same compound gave an ED20 in test [1] of 0.05 mg/kg. Also, the ED50 in test [2] (setting [7]) was 0.17 mg/kg; in test [2] (setting [8]) it was 0.46 mg/kg; in test [3] it was 0.35 mg/kg; in test [5], 0.23 mg/kg.
The compound `C[C@H]1CN(CCC2C=CCC2)CC[C@@]1(C)c1cccc(O)c1` (relative stereo) [Example 7, trans-(±)-1-[2-(2-Cyclopenten-1-yl)ethyl]-3,4-dimethyl-4-(3-hydroxyphenyl)piperidine hydrochloride] came in with a Ki in test [6] of 1.04 nM. Moreover, the ED20 in test [1] is 0.34 mg/kg. In addition, the ED50 in test [2] (setting [7]) amounted to 1.3 mg/kg; in test [2] (setting [8]), 1.38 mg/kg; in test [3], 0.11 mg/kg; in test [5], 0.12 mg/kg.

The record behind these values is patent US4992450A, “Piperidine opioid antagonists” (Eli Lilly and Company, priority 1989, dated 1991).
